Results published in ChEMBL document CHEMBL1201862, “PubChem BioAssay data set” (2004).
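In this assay, cells in 96-well plates receive the compound at five concentrations for 48 hours. Endpoints are linearly interpolated between the surrounding concentrations. At the GI50, growth is halved.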 Activity calls are given as the source filed them. Cut-off read from the data, not from the text of the source: active = GI50 up to about 1.1 µM and inactive = higher.

Key:
Experiment in all cases: NCI tumour cell line growth inhibition, 48 h
COLO 205 = system: COLO 205
DU-145 = system: DU-145
HOP-92 = system: HOP-92
LOX IMVI = system: LOX IMVI
MDA-MB-231 = system: MDA-MB-231
MDA-N = system: MDA-N
NCI-H23 = system: NCI-H23
NCI-H460 = system: NCI-H460
OVCAR-3 = system: OVCAR-3
PC-3 = system: PC-3
RPMI-8226 = system: RPMI-8226
SF-268 = system: SF-268
SF-539 = system: SF-539
SK-MEL-2 = system: SK-MEL-2
SK-OV-3 = system: SK-OV-3
SN12C = system: SN12C
SR = system: SR
TK-10 = system: TK-10
UACC-257 = system: UACC-257
UACC-62 = system: UACC-62

Row | SMILES | GI50 (COLO 205) | GI50 (DU-145) | GI50 (HOP-92) | GI50 (LOX IMVI) | GI50 (MDA-MB-231) | GI50 (MDA-N) | GI50 (NCI-H23) | GI50 (NCI-H460) | GI50 (OVCAR-3) | GI50 (PC-3) | GI50 (RPMI-8226) | GI50 (SF-268) | GI50 (SF-539) | GI50 (SK-MEL-2) | GI50 (SK-OV-3) | GI50 (SN12C) | GI50 (SR) | GI50 (TK-10) | GI50 (UACC-257) | GI50 (UACC-62)
1 | Cc1ccc(NC(=O)c2ccc(OP(=O)(O)Nc3ccc(C)cc3)cc2)cc1 | > 100 µM (inactive) | > 100 µM (inactive) | > 100 µM (inactive) | > 100 µM (inactive) | > 100 µM (inactive) | > 100 µM (inactive) | > 100 µM (inactive) | > 100 µM (inactive) | > 100 µM (inactive) | > 100 µM (inactive) | > 100 µM (inactive) | > 100 µM (inactive) | > 100 µM (inactive) | 12 µM (inactive) | > 100 µM (inactive) | > 100 µM (inactive) | > 100 µM (inactive) | > 100 µM (inactive) | > 100 µM (inactive) | > 100 µM (inactive)
2 | Cc1ccnc2nc(-c3cccc(Cl)c3)cc(O)c12 | 0.0598 µM (active) | 0.495 µM (active) | 2.43 µM (inactive) | 0.155 µM (active) | 0.108 µM (active) | 0.0108 µM (active) | 0.826 µM (active) | 0.0386 µM (active) | 0.0279 µM (active) | 0.0206 µM (active) | 0.0356 µM (active) | 20.7 µM (inactive) | 0.0906 µM (active) | 0.0675 µM (active) | 0.267 µM (active) | 0.139 µM (active) | 0.0325 µM (active) | > 100 µM (inactive) | > 100 µM (inactive) | 0.0474 µM (active)
3 | COc1cc(CSc2ccc(O)cc2)cc(OC)c1OC | 67.8 µM (inactive) | 53.2 µM (inactive) | 19.3 µM (inactive) | 59.8 µM (inactive) | 43.2 µM (inactive) | 30.5 µM (inactive) | 28.6 µM (inactive) | 37.6 µM (inactive) | 41.6 µM (inactive) | 27.4 µM (inactive) | 21.3 µM (inactive) | 53.3 µM (inactive) | 53.3 µM (inactive) | 21 µM (inactive) | 62.2 µM (inactive) | 52.5 µM (inactive) | 24.1 µM (inactive) | 75.2 µM (inactive) | 39 µM (inactive) | 27.4 µM (inactive)
4 | Cc1cc(C)c2c(O)cc(-c3ccc4ccccc4c3)nc2n1 | 18.3 µM (inactive) | 21.7 µM (inactive) | 11.1 µM (inactive) | 17.9 µM (inactive) | 23.1 µM (inactive) | 3.34 µM (inactive) | 30.8 µM (inactive) | 9.84 µM (inactive) | 32.4 µM (inactive) | 10.2 µM (inactive) | 6.31 µM (inactive) | 57.3 µM (inactive) | 30.8 µM (inactive) | 13.6 µM (inactive) | 33.3 µM (inactive) | 43.7 µM (inactive) | 5.98 µM (inactive) | 31 µM (inactive) | 21.2 µM (inactive) | 14.7 µM (inactive)
5 | OC(CCN1CCN(CCOC(c2ccc(F)cc2)c2ccc(F)cc2)CC1)c1ccccc1 (stereo not drawn) | 4.09 µM (inactive) | 17.3 µM (inactive) | 10.3 µM (inactive) | 14.6 µM (inactive) | 14.6 µM (inactive) | 15.1 µM (inactive) | 16.6 µM (inactive) | 16.7 µM (inactive) | 15.3 µM (inactive) | 13.6 µM (inactive) | 15.7 µM (inactive) | 16.9 µM (inactive) | 11.1 µM (inactive) | 15.3 µM (inactive) | 16.3 µM (inactive) | 15.2 µM (inactive) | 5.48 µM (inactive) | 15 µM (inactive) | 16.2 µM (inactive) | 14.5 µM (inactive)
6 | Cc1nc(N)nc(S)c1CCCNc1ccccc1 | 23.5 µM (inactive) | 76.2 µM (inactive) | > 100 µM (inactive) | 54.5 µM (inactive) | > 100 µM (inactive) | 52 µM (inactive) | 88.5 µM (inactive) | 35 µM (inactive) | > 100 µM (inactive) | 61.2 µM (inactive) | 27.2 µM (inactive) | 62.5 µM (inactive) | 95.7 µM (inactive) | 60.1 µM (inactive) | > 100 µM (inactive) | 69.7 µM (inactive) | 3.6 µM (inactive) | 63.8 µM (inactive) | 26.9 µM (inactive) | 78.2 µM (inactive)
7 | COc1ccc(-c2nnc(-c3ccncc3)o2)cc1 | > 100 µM (inactive) | > 100 µM (inactive) | > 100 µM (inactive) | > 100 µM (inactive) | > 100 µM (inactive) | > 100 µM (inactive) | > 100 µM (inactive) | – | > 100 µM (inactive) | > 100 µM (inactive) | > 100 µM (inactive) | > 100 µM (inactive) | > 100 µM (inactive) | > 100 µM (inactive) | > 100 µM (inactive) | > 100 µM (inactive) | > 100 µM (inactive) | > 100 µM (inactive) | > 100 µM (inactive) | > 100 µM (inactive)
8 | C=C(C)[C@@H](C(=O)OC)N1C(=O)c2ccccc2C1=O | > 100 µM (inactive) | > 100 µM (inactive) | > 100 µM (inactive) | > 100 µM (inactive) | > 100 µM (inactive) | > 100 µM (inactive) | > 100 µM (inactive) | > 100 µM (inactive) | > 100 µM (inactive) | > 100 µM (inactive) | > 100 µM (inactive) | > 100 µM (inactive) | > 100 µM (inactive) | > 100 µM (inactive) | > 100 µM (inactive) | > 100 µM (inactive) | > 100 µM (inactive) | > 100 µM (inactive) | > 100 µM (inactive) | > 100 µM (inactive)
9 | COc1c(C)c(C/C=C(\C)CCCC(C)CCCC(C)CCCC(C)C)c(OC)c2ccccc12 (stereo not drawn) | > 100 µM (inactive) | > 100 µM (inactive) | > 100 µM (inactive) | > 100 µM (inactive) | > 100 µM (inactive) | > 100 µM (inactive) | > 100 µM (inactive) | > 100 µM (inactive) | > 100 µM (inactive) | > 100 µM (inactive) | > 100 µM (inactive) | > 100 µM (inactive) | > 100 µM (inactive) | > 100 µM (inactive) | > 100 µM (inactive) | > 100 µM (inactive) | > 100 µM (inactive) | > 100 µM (inactive) | > 100 µM (inactive) | > 100 µM (inactive)
10 | CCCCn1c2c(n(CCCC)c1=S)-c1c(n(CCCC)c(=S)n1CCCC)SSc1c(n(CCCC)c(=S)n1CCCC)-c1c(n(CCCC)c(=S)n1CCCC)SSc1c(n(CCCC)c(=S)n1CCCC)-c1c(n(CCCC)c(=S)n1CCCC)SS2 | 2.64 µM (inactive) | 29.8 µM (inactive) | 1.65 µM (inactive) | 4 µM (inactive) | 2.24 µM (inactive) | 7.41 µM (inactive) | 16.3 µM (inactive) | > 31 µM (inactive) | 1.87 µM (inactive) | 2.04 µM (inactive) | 1.99 µM (inactive) | 5.24 µM (inactive) | 4.31 µM (inactive) | 10.7 µM (inactive) | > 29.2 µM (inactive) | 2.8 µM (inactive) | 1.88 µM (inactive) | > 30.2 µM (inactive) | 2.98 µM (inactive) | 3.37 µM (inactive)
11 | O=C(Nc1ccn(C2CCC(COC(c3ccccc3)(c3ccccc3)c3ccccc3)O2)c(=O)n1)c1ccccc1 (stereo not drawn) | 1.77 µM (inactive) | 7.91 µM (inactive) | 1.86 µM (inactive) | 2.72 µM (inactive) | 5.87 µM (inactive) | 3.57 µM (inactive) | 2.31 µM (inactive) | 2.92 µM (inactive) | 2.4 µM (inactive) | 1.5 µM (inactive) | 2.31 µM (inactive) | 7.64 µM (inactive) | 3.43 µM (inactive) | 2.48 µM (inactive) | 9.44 µM (inactive) | 1.88 µM (inactive) | 2.34 µM (inactive) | 5.12 µM (inactive) | 6.81 µM (inactive) | 5.5 µM (inactive)
12 | OC(COc1ccccc1)CN1CCCCC1 (stereo not drawn) | > 100 µM (inactive) | > 100 µM (inactive) | > 100 µM (inactive) | > 100 µM (inactive) | > 100 µM (inactive) | > 100 µM (inactive) | > 100 µM (inactive) | > 100 µM (inactive) | > 100 µM (inactive) | > 100 µM (inactive) | > 100 µM (inactive) | > 100 µM (inactive) | > 100 µM (inactive) | > 100 µM (inactive) | > 100 µM (inactive) | > 100 µM (inactive) | > 100 µM (inactive) | > 100 µM (inactive) | > 100 µM (inactive) | > 100 µM (inactive)
13 | COC(=O)c1cc(=O)nc2sc3cccc(C)c3n12 | 14.3 µM (inactive) | > 100 µM (inactive) | 30.2 µM (inactive) | 14.8 µM (inactive) | 24.8 µM (inactive) | 44 µM (inactive) | 55 µM (inactive) | 68.7 µM (inactive) | 23 µM (inactive) | 21 µM (inactive) | 22 µM (inactive) | 61.1 µM (inactive) | 34.1 µM (inactive) | 30.3 µM (inactive) | > 100 µM (inactive) | 40.6 µM (inactive) | 24 µM (inactive) | > 100 µM (inactive) | 65 µM (inactive) | 46.2 µM (inactive)
14 | Cc1ccc(NC(=S)C#N)cc1Cl | 20.9 µM (inactive) | 68.9 µM (inactive) | 13.4 µM (inactive) | 42.3 µM (inactive) | 88.3 µM (inactive) | 41.7 µM (inactive) | 33.8 µM (inactive) | – | 21.5 µM (inactive) | 43.4 µM (inactive) | 6.79 µM (inactive) | 36.9 µM (inactive) | 24.2 µM (inactive) | 35.5 µM (inactive) | 26.5 µM (inactive) | 58.5 µM (inactive) | 27 µM (inactive) | 60.4 µM (inactive) | 46.3 µM (inactive) | 37.9 µM (inactive)
